# Reference: US7868005B2, “Pyrazinyl substituted piperazine-piperidines with CXCR3 antagonist activity” (Schering Corporation, priority 2005, dated 2011)
# Target: T1, human CXCR3 (N-delta 4) (Homo sapiens, UniProt P49682)
# T1 construct: CD8 leader (N); Flag; expressed in transfected cells; membranes prepared
# T1 sequence (P49682 5-368 limits assumed): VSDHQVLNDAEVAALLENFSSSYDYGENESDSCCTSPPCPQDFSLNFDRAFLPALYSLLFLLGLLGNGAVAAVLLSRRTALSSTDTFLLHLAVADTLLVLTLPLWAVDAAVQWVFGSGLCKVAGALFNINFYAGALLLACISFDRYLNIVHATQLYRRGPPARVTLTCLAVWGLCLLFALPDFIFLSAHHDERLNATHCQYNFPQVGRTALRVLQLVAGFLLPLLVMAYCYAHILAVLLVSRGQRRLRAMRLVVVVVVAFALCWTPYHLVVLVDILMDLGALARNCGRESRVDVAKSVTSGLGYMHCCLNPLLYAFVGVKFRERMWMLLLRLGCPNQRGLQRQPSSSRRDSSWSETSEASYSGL
# Test: Human CXCR3 (N-delta 4) Scintillation Proximity Assay (SPA), [125I] IP-10 binding to Ba/F3-hCXCR3 membranes
# Settings: IC50 rating, Table 1; read-out: IC50
# Text: The inventive compounds can readily be evaluated to determine activity at the CXCR3 receptors by known methods, such as, for example, development of a human CXCR3 (N-delta 4) Binding Assay.
# Cloning and Expression of Human CXCR3 (N-delta 4):
# The DNA encoding human CXCR3 was cloned by PCR using human genomic DNA (Promega, Madison, Wis.) as a template. The PCR primers were designed based on the published sequence of human orphan receptor GPR9 (1) with incorporated restriction sites, a Kozak consensus sequence, CD8 leader and Flag tag. The PCR product was subcloned into the mammalian expression vector pME18Sneo, a derivative of the SR-alpha expression vector (designated as pME18Sneo-hCXCR3 (N-delta 4).
# IL-3-dependent mouse pro-B cells Ba/F3 were transfected by electroporation in 0.4 ml Dulbecco's PBS containing 4×10^6 cells with 20 μg of pME18Sneo-hCXCR3 (N-delta 4) plasmid DNA. Cells were pulsed at 400 Volts, 100 OHMs, 960 μFd. The transfected cells were under selection with 1 mg/ml G418 (Life Technologies, Gaithersburg, Md.). G418-resistant Ba/F3 clones were screened for CXCR3 expression by specific binding of [^125I] IP-10 (NEN Life Science Products, Boston, Mass.).
# Preparation of Ba/F3-hCXCR3 (N-delta 4) Membranes:
# Ba/F3 cells expressing human CXCR3 (N-delta 4) were pelleted and resuspended in the lysis buffer containing 10 mM HEPES, pH 7.5 and Complete® protease inhibitors (1 tablet per 100 ml) (Boehringer Mannheim, Indianapolis, Ind.) at a cell density of 20×10^6 cells per ml. After 5 minute incubation on ice, cells were transferred to 4639 cell disruption bomb (Parr Instrument, Moline, Ill.) and applied with 1,500 psi of nitrogen for 30 minutes on ice. Large cellular debris was removed by centrifugation at 1,000×g. Cell membrane in the supernatant was sedimented at 100,000×g. The membrane was resuspended in the lysis buffer supplemented with 10% sucrose and stored at −80° C. Total protein concentration of the membrane was determined by BCA method from Pierce (Rockford, Ill.).
# Human CXCR3 (N-delta 4) Scintillation Proximity Assay (SPA):
# For each assay point, 2 μg of membrane was preincubated for 1 hr with 300 μg wheat germ agglutinin (WGA) coated SPA beads (Amersham, Arlington Heights, Ill.) in the binding buffer (50 mM HEPES, 1 mM CaCl2, 5 mM MgCl2, 125 mM NaCl, 0.002% NaN3, 1.0% BSA) at room temperature. The beads were spun down, washed once, resuspended in the binding buffer and transferred to a 96-well Isoplate (Wallac, Gaithersburg, Md.). 25 pM of [^125I] IP-10 with tested compounds in a series of titration were added to start the reaction. After 3 hr reaction at room temperature, the amount of [^125I] IP-10 bound to the SPA beads was determined with a Wallac 1450 Microbeta counter.
# The Ki ratings for the various compounds of the present invention are given in the afore-mentioned Table 1. From these ratings and value ranges, it would be apparent to the skilled artisan that the compounds of the invention have excellent utility as CXCR3 receptor antagonists.
row,SMILES,IC50 [nM]
1,CC[C@H]1CN(c2nc(N)c(C(N)=O)nc2Cl)CCN1C1CCN(Cc2ccc(Cl)cc2)CC1 [compound 1],< 25
2,CC[C@H]1CN(c2nc(N)c(C(N)=O)nc2Cl)CCN1C1CCN(Cc2ccc(Cl)cc2C(=N)N)CC1 [compound 2],< 25
3,CC[C@H]1CN(c2nc(N)c(C(N)=O)nc2Cl)CCN1C1CCN(C(CO)c2ccc(Cl)cc2)CC1 (some centres unmarked) [compound 3],< 25
4,CC[C@H]1CN(c2nc(N)c(C(N)=O)nc2Cl)CCN1C1CCN(Cc2ccc(Cl)cc2CCO)CC1 [compound 4],< 25
5,CC[C@H]1CN(c2nc(N)c(C(N)=O)nc2Cl)CCN1C1CCN([C@@H](CO)c2ccc(Cl)cc2)CC1 [compound 5],< 25
6,CC[C@H]1CN(c2nc(N)c(C(N)=O)nc2Cl)CCN1C1CCN(Cc2ccc(Cl)cc2CCN)CC1 [compound 6],< 25
7,CC[C@H]1CN(c2nc(N)c(C(N)=O)nc2Cl)CCN1C1CCN(Cc2ccc(Cl)cc2C(O)CO)CC1 (some centres unmarked) [compound 7],< 25
8,CC[C@H]1CN(c2nc(N)c(C(N)=O)nc2Cl)CCN1C1CCN(Cc2ccc(Cl)cc2C(N)=O)CC1 [compound 8],< 25
9,CC[C@H]1CN(c2nc(N)c(C(N)=O)nc2Cl)CCN1C1CCN(Cc2ccc(OC(F)(F)F)cc2)CC1 [compound 9],< 25
10,CC[C@H]1CN(c2nc(N)c(C(N)=O)nc2Cl)CCN1C1CCN(Cc2ccc(Cl)cc2F)CC1 [compound 10],< 25
11,CC[C@H]1CN(c2nc(N)c(C(N)=O)nc2Cl)CCN1C1CCN(Cc2ccc(Cl)cc2[C@H](O)C(N)=O)CC1 [compound 11],< 25
12,CC[C@H]1CN(c2nc(N)c(C(N)=O)nc2Cl)CCN1C1CCN(Cc2ccc(Cl)cc2[C@H](O)C(=O)NC)CC1 [compound 12],< 25
13,CC[C@H]1CN(c2nc(N)c(C(N)=O)nc2Cl)CCN1C1CCN(Cc2ccc(Cl)cc2CCNC(=O)OC(C)(C)C)CC1 [compound 13],< 25
14,CC[C@H]1CN(c2nc(N)c(C(N)=O)nc2Cl)CCN1C1CCN(Cc2ccc(Cl)cc2C(C)CO)CC1 (some centres unmarked) [compound 14],< 25
15,CC[C@H]1CN(c2nc(N)c(C(N)=O)nc2Cl)CCN1C1CCN(Cc2ccc(C(=O)OC)cc2)CC1 [compound 15],< 25
16,CC[C@H]1CN(c2nc(N)c(C(N)=O)nc2Cl)CCN1C1CCN(Cc2ccc(C#N)cc2)CC1 [compound 16],< 25
17,CC[C@H]1CN(c2nc(N)c(C(N)=O)nc2Cl)CCN1C1CCN(Cc2ccc(Cl)cc2CC(N)=O)CC1 [compound 17],< 25
18,CC[C@H]1CN(c2nc(N)c(C(N)=O)nc2Cl)CCN1C1CCN(Cc2ccc(Cl)cc2C(O)C(=O)N(C)C)CC1 (some centres unmarked) [compound 18],< 25
19,CC[C@H]1CN(c2nc(N)c(C(N)=O)nc2Cl)CCN1C1CCN(Cc2ccc(Cl)cc2C(C)(C)CO)CC1 [compound 19],< 25
20,CC[C@H]1CN(c2nc(N)c(C(N)=O)nc2Cl)CCN1C1CCN(Cc2ccc(Cl)cc2C#N)CC1 [compound 20],< 25
21,CC[C@H]1CN(c2nc(N)c(C(N)=O)nc2Cl)CCN1C1CCN(Cc2ccc(Cl)cc2CC(=O)NCC(C)O)CC1 (some centres unmarked) [compound 21],< 25
22,CC[C@H]1CN(c2nc(N)c(C(N)=O)nc2Cl)CCN1C1CCN(Cc2ccc(Cl)cc2CC(=O)NCC2CCCO2)CC1 (some centres unmarked) [compound 22],< 25

row,SMILES,IC50 [nM]
1,CC[C@H]1CN(c2nc(N)c(C(N)=O)nc2Cl)CCN1C1CCN(Cc2ccc(Cl)cc2-c2nnn[nH]2)CC1 [compound 23],25 to 100
2,CC[C@H]1CN(c2nc(N)c(C(N)=O)nc2Cl)CCN1C1CCN(Cc2ccc(Cl)cc2C2COC(=O)O2)CC1 (some centres unmarked) [compound 24],25 to 100
3,CC[C@H]1CN(c2nc(N)c(C(N)=O)nc2Cl)CCN1C1CCN(Cc2ccc(-n3cccn3)cc2)CC1 [compound 25],25 to 100
4,CC[C@H]1CN(c2nc(N)c(C(N)=O)nc2Cl)CCN1C1CCN(Cc2ccc(Cl)cc2C(=O)O)CC1 [compound 26],25 to 100
5,CC[C@H]1CN(c2nc(N)c(C(N)=O)nc2Cl)CCN1C1CCN(Cc2ccc(Cl)cc2NC(=O)C(C)O)CC1 (some centres unmarked) [compound 27],25 to 100
6,CC[C@H]1CN(c2nc(N)c(C(N)=O)nc2Cl)CCN1C1CCN(Cc2ccc(Cl)cc2[C@@H](O)C(N)=O)CC1 [compound 28],25 to 100
7,C[C@H]1CN(c2nc(N)c(C(N)=O)nc2Cl)CCN1C1CCN(Cc2ccc(Cl)cc2)CC1 [compound 29],25 to 100
8,CC[C@H]1CN(c2nc(N)c(C(N)=O)nc2Cl)CCN1C1CCN(Cc2ccc(Cl)cc2CC(C)(C)O)CC1 [compound 30],25 to 100
9,CC[C@H]1CN(c2nc(N)c(C(N)=O)nc2Cl)CCN1C1CCN(Cc2ccc(Cl)cc2C(=O)OC)CC1 [compound 31],25 to 100
10,CC[C@H]1CN(c2nc(N)c(C(N)=O)nc2Cl)CCN1C1CCN(Cc2ccc(Cl)cc2CCNC=O)CC1 [compound 32],25 to 100
11,CC[C@H]1CN(c2nc(N)c(C(N)=O)nc2Cl)CCN1C1CCN(Cc2ccc(Cl)cc2CC#N)CC1 [compound 33],25 to 100
12,CC[C@H]1CN(c2nc(N)c(C(N)=O)nc2Cl)CCN1C1CCN(Cc2ccc(Cl)cc2CCNC(N)=O)CC1 [compound 34],25 to 100
13,CC[C@H]1CN(c2nc(N)c(C(N)=O)nc2Cl)CCN1C1CCN(Cc2ccc(Cl)cc2CC(=O)NC)CC1 [compound 35],25 to 100
14,CC[C@H]1CN(c2nc(N)c(C(N)=O)nc2Cl)CCN1C1CCN(Cc2ccc(Cl)cc2CCNS(C)(=O)=O)CC1 [compound 36],25 to 100
15,CC[C@H]1CN(c2nc(N)c(C(N)=O)nc2Cl)CCN1C1CCN(Cc2ccc(Cl)cc2CC(=O)O)CC1 [compound 37],25 to 100
16,CC[C@H]1CN(c2nc(N)c(C(N)=O)nc2Cl)CCN1C1CCN(Cc2ccc(Cl)cc2CC(=O)OC)CC1 [compound 38],25 to 100
17,CC[C@H]1CN(c2nc(N)c(C(N)=O)nc2Cl)CCN1C1CCN(Cc2ccc(Cl)cc2CCNC(=O)OC)CC1 [compound 39],25 to 100
18,CC[C@H]1CN(c2nc(N)c(C(N)=O)nc2Cl)CCN1C1CCN([C@@H](C(=O)O)c2ccc(Cl)cc2)CC1 [compound 40],25 to 100
19,CC[C@H]1CN(c2nc(N)c(C(N)=O)nc2Cl)CCN1C1CCN(Cc2ccc(Cl)cc2CCNC(C)=O)CC1 [compound 41],25 to 100
20,CC[C@H]1CN(c2nc(N)c(C(N)=O)nc2Cl)CCN1C1CCN(Cc2ccc(Cl)cc2CC(=O)N(C)C)CC1 [compound 42],> 100
21,CC[C@H]1CN(c2nc(N)c(C(N)=O)nc2Cl)CCN1C1CCN(Cc2ccc(Cl)cc2C2NC(=O)NC2=O)CC1 (some centres unmarked) [compound 43],> 100

# Same assay, conditions: human; read-out: human IC50
row,SMILES,IC50 [nM]
1,CC[C@H]1CN(c2nc(N)c(C(=O)NCCO)nc2Cl)CCN1C1CCN(Cc2ccc(Cl)cc2CO)CC1 [Formula 7],< 1
2,CC[C@H]1CN(c2nc(N)c(C(=O)NCCO)nc2Cl)CCN1C1CCN([C@@H](CO)c2ccc(Cl)cc2)CC1 [Formula 8],< 1
3,CC[C@H]1CN(c2nc(N)c(C(=O)NC)nc2Cl)CCN1C1CCN(Cc2ccc(Cl)cc2)CC1 [Formula 9],< 1
4,CC[C@H]1CN(c2ncc(C(=O)NC3CC3)nc2C)CCN1C1CCN(Cc2ccc(Cl)cc2)CC1 [Formula 10],< 1
5,CC[C@H]1CN(c2ncc(C(=O)NC3CC3)nc2C)CCN1C1CCN(Cc2ccc(F)c(F)c2)CC1 [Formula 11],< 1
6,CC[C@H]1CN(c2ncc(C(=O)NC3CC3)nc2C)CCN1C1CCN([C@@H](CO)c2ccc(Cl)cc2)CC1 [Formula 12],< 1
7,CC[C@H]1CN(c2ncc(C(N)=O)nc2C(F)(F)F)CCN1C1CCN(C(=O)c2ccc(Cl)cc2)CC1 [Formula 13],< 1
